The results in this text go back to ChEMBL document CHEMBL1129257, “Potent inhibition of tumor necrosis factor-alpha production by tetrafluorothalidomide and tetrafluorophthalimides” (J Med Chem, 1996).

Common to all, as to type: functional
In test [1] the target is T1, Tumor necrosis factor (Homo sapiens, UniProt P01375). Put plainly: Inhibition of TNF-alpha production from human monocytes upon stimulation with bacterial lipopolysaccharide (LPS) at a concentration of 200 uM.
Test [2] has as its target T1, Tumor necrosis factor. Put plainly: Inhibition of TNF-alpha production from human monocytes upon stimulation with bacterial lipopolysaccharide (LPS) at a concentration of 464 nM. The settings on record: values are per cent of control.
Test [3] has as its target T1, Tumor necrosis factor. Briefly: Inhibition of TNF-alpha production from human monocytes upon stimulation with bacterial lipopolysaccharide (LPS) at a concentration of 1 uM. The settings on record: values are per cent of control.
Test [4] deals with T1, Tumor necrosis factor. Put plainly: Inhibition of TNF-alpha production from human monocytes upon stimulation with bacterial lipopolysaccharide (LPS) at a concentration of 215 nM. The settings on record: values are per cent of control.
For test [5], the target named is T1, Tumor necrosis factor. Put plainly: Inhibition of TNF-alpha production from human monocytes upon stimulation with bacterial lipopolysaccharide (LPS) at a concentration of 100 nM. The settings on record: values are per cent of control.
Test [6] concerns the target T1, Tumor necrosis factor. Put plainly: Inhibitory activity against TNF-alpha production.
Test [7] addresses T1, Tumor necrosis factor. Put plainly: Inhibition of TNF-alpha production from human monocytes upon stimulation with bacterial lipopolysaccharide (LPS) at a concentration of 464 nM,.
Test [8] deals with T1, Tumor necrosis factor. Put plainly: Inhibition of TNF-alpha production from human monocytes upon stimulation with bacterial lipopolysaccharide (LPS) at a concentration of 100 nM,.
The target in test [9] is T1, Tumor necrosis factor. Put plainly: Inhibition of TNF-alpha production from human monocytes upon stimulation with bacterial lipopolysaccharide (LPS) at a concentration of 215 nM,.
Test [10] concerns the target T1, Tumor necrosis factor. Put plainly: Inhibition of TNF-alpha production from human monocytes upon stimulation with bacterial lipopolysaccharide (LPS) at a concentration of 464 uM.
For test [11], the target named is T1, Tumor necrosis factor. Briefly: Inhibition of TNF-alpha production from human monocytes upon stimulation with bacterial lipopolysaccharide (LPS) at a concentration of 215 uM,.
Test [12] deals with T1, Tumor necrosis factor. Put plainly: Inhibition of TNF-alpha production from human monocytes upon stimulation with bacterial lipopolysaccharide (LPS) at a concentration of 100 uM,.

Each structure is given as a SMILES string.

T1 sequence (P01375 whole entry): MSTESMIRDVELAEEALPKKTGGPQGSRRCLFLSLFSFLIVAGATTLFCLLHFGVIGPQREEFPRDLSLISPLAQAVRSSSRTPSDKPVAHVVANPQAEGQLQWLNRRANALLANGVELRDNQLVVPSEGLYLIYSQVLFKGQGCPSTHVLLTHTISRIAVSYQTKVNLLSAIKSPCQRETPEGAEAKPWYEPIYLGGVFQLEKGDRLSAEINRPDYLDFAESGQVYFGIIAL

The inhibition is the percentage by which the read-out fell short of the control. Low readings indicate little suppression, high ones strong suppression. Regarding `O=C1CCC(N2C(=O)c3ccccc3C2=O)C(=O)N1` (stereo unspecified), the inhibition in [1] amounted to 64%.
In the case of `O=C1CCC(N2C(=O)c3c(Cl)c(Cl)c(Cl)c(Cl)c3C2=O)C(=O)N1` (racemic), the response, % of control was 80% in [2], 75% in [3], 90% in test [4] and 80% in test [5].
Take `CC(C)(C)c1cccc(C(C)(C)C)c1N1C(=O)c2c(F)c(F)c(F)c(F)c2C1=O`: the response, % of control is 15% in test [2], -2% in [3], 30% in [4] and 40% in test [5].
With `CC(C)c1cccc(C(C)C)c1N1C(=O)c2c(Br)c(Br)c(Br)c(Br)c2C1=O`, the response, % of control in test [2] came out at 53%; in test [3], 62%; in [4] it was 70%; in test [5], 80%.
Regarding `Cc1cccc(C)c1N1C(=O)c2c(F)c(F)c(F)c(F)c2C1=O`, the response, % of control in test [2] was 30%; in test [3], 3%; in test [4] it was 50%; in test [5], 62%.
As usually defined, the IC50 is the concentration needed to halve the response being measured. A lower IC50 goes with greater potency. Take `O=C1CCC(N2C(=O)c3c(F)c(F)c(F)c(F)c3C2=O)C(=O)N1` (racemic): the midpoint of inhibition in test [6], the IC50, lay at 400 nM. For the same compound, the response, % of control in test [2] turned out to be 40%; in [3], 4%; in test [4], 70%; in test [5] it was 85%.
`CC(C)c1cccc(C(C)C)c1N1C(=O)c2c(Cl)c(Cl)c(Cl)c(Cl)c2C1=O`: the response, % of control in test [2] turned out to be 70%; in test [3] it was 70%; in test [4] it was 80%; in test [5], 75%.
With `CCc1cccc(CC)c1N1C(=O)c2c(F)c(F)c(F)c(F)c2C1=O`, the inhibition in [7] was determined as 2%; in test [8] it was 43%; in [9] it was 20%. Also, the response, % of control in test [3] was -1%.
Regarding `COC(=O)CC(c1ccc(OC)c(OC)c1)N1C(=O)c2c(F)c(F)c(F)c(F)c2C1=O` (racemic), the inhibition in [10] was 10%; in [11], 30%; in test [12], 55%. The response, % of control in [3] was -5%.
Regarding `O=C1CCC(N2C(=O)c3c(Br)c(Br)c(Br)c(Br)c3C2=O)C(=O)N1` (racemic), the response, % of control in [2] amounted to 62%; in test [3], 53%; in test [4] it was 60%; in test [5] it was 70%.
The matching figures for `O=C1c2c(F)c(F)c(F)c(F)c2C(=O)N1c1ccccc1`: 70%, 65%, 65% and 65%.
In the same order, the values of `CC(C)c1cccc(C(C)C)c1N1C(=O)c2c(F)c(F)c(F)c(F)c2C1=O` are 2%, 5%, 10% and 40%.
